Assay results from article PMC11224282, “Insight into binding of endogenous neurosteroid ligands to the sigma-1 receptor” (Nature Communications, 2024).
Where two headings read alike, the source gives them in different places.

Molecular target: T1, xlσ1R E169A (Xenopus laevis, UniProt Q6DCU6, E169A)
T1 construct: hemagglutinin signal peptide (N); made in house; host or cells: Pichia pastoris GS115
T1 sequence (Q6DCU6 1-221 E169A): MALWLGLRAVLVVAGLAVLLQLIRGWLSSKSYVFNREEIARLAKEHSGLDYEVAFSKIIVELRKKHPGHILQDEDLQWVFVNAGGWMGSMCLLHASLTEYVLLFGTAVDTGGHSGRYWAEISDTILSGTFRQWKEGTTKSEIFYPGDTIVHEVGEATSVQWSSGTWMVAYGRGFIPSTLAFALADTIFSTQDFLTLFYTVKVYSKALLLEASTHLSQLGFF
Test: Microscale thermophoresis (MST) binding to xlσ1R E169A mutant

`CC(=O)[C@H]1CC[C@H]2[C@@H]3CCC4=CC(=O)CC[C@]4(C)[C@H]3CC[C@]12C` [progesterone] showed a Kd (MST, xlσ1R E169A, N = 3, mean (± SD), read-out: Kd (mean)) of 980 ± 180 nM, a Kd (Source Data sheet Supplementary Table 3, E169A, mean of 3, read-out: Kd Mean) of 990 nM and a Kd (Source Data sheet Supplementary Table 3, E169A, repeat 1, read-out: Kd Repeat 1) of 920 nM. It also gave a Kd (Source Data sheet Supplementary Table 3, E169A, repeat 2, read-out: Kd Repeat 2) of 1190 nM and a Kd (Source Data sheet Supplementary Table 3, E169A, repeat 3, read-out: Kd Repeat 3) of 850 nM.
